The record followed here is article PMC11643494, “Structure–Activity Relationship Studies in a Series of 2-Aryloxy-N-(pyrimidin-5-yl)acetamide Inhibitors of SLACK Potassium Channels” (Molecules, 2024).

Holding throughout (assay type): cell-based
One series addresses T1, NaV1.7 (Homo sapiens, UniProt Q15858).
T1 construct: expressed in transfected cells; host or cells: HEK293
As to the kind of experiment: Tl+-flux assay in HEK-293 cells, NaV1.7. The settings on record: HEK293; 10 µM test compound; relative to control TC-N 1752; read-out: Percent Inhibition ± SEM, NaV1.7. The text has this: (§1) Having executed our plan to prepare analogs across the identified regions of the chemotype (Figure 2), we identified two analogs for further profiling and evaluation. […] Desiring to add a second compound with some measure of structural differences, we also chose another submicromolar SLACK inhibitor 66 (VU0936154). Whereas 40 contains an ether linker and a halogenated phenyl group in the eastern region, […] contains an N-methyl linker and a phenyl group with a more polar cyano substituent. We first screened these analogs at 10 µM versus our in-house panel of ion channel targets using Tl^+-flux assays in HEK-293 cells expressing the human target of interest. […] Included in this set are Slo family members SLICK and two isoforms of Maxi-K, as well as several different K^+, Na^+, and Ca^2+ channels (Table 6). […] Of note was the excellent selectivity versus the broader panel of targets for both compounds, including versus the hERG channel.
(§2) Stably transfected monoclonal HEK293 cell lines expressing SLICK, Maxi-K α1/β3, Maxi-K α1/β4, CaV3.2, GIRK 1/2, KV2.1, KV7.2, NaV1.7, and TASK-1 were generated as previously described. […]
(§3) The Tl^+ flux assays were conducted as previously described, with modifications optimized for individual cell lines as described below. […] Cell plates were then loaded onto a Panoptic kinetic imaging plate reader (WaveFront Biosciences, Franklin, TN, USA). […]

The target of the next series is T2, KV2.1 (Homo sapiens, UniProt Q14721).
T2 construct: expressed in transfected cells; host or cells: HEK293
Description: Tl+-flux assay in HEK-293 cells, KV2.1. The note with it: HEK293; 10 µM test compound; relative to control guangxitoxin 1E; read-out: Percent Inhibition ± SEM, KV2.1.
From the text: as §1, §2, §3

For a further series, the target named is T3, Maxi-K α1/β3 (Homo sapiens, UniProt Q12791).
T3 construct: expressed in transfected cells; host or cells: HEK293
As to the kind of experiment: Tl+-flux assay in HEK-293 cells, Maxi-K α1/β3. The note with it: HEK293; 10 µM test compound; relative to control paxilline; read-out: Percent Inhibition ± SEM, Maxi-K α1/β3.
From the text: as §1, §2, §3

The next series has as its target T4, TASK-1 (Homo sapiens, UniProt O14649).
T4 construct: expressed in transfected cells; host or cells: HEK293
As to the kind of experiment: Tl+-flux assay in HEK-293 cells, TASK-1. The note with it: HEK293; 10 µM test compound; relative to control bepridil; read-out: Percent Inhibition ± SEM, TASK-1.
From the text: as §1, §2, §3

The target of a further series is T5, KV7.2 (Homo sapiens, UniProt O43526).
T5 construct: expressed in transfected cells; host or cells: HEK293
Description: Tl+-flux assay in HEK-293 cells, KV7.2. The settings on record: HEK293; 10 µM test compound; relative to control XE991; read-out: Percent Inhibition ± SEM, KV7.2.
From the text: as §1, §2, §3

For another series, the target named is T6, hERG (Homo sapiens, UniProt Q12809).
T6 construct: expressed in transfected cells; host or cells: HEK293
Description: Tl+-flux assay in HEK-293 cells, hERG. The settings on record: HEK293 cells stably expressing hERG, pH 7.3, 10 µM test compound, relative to control bepridil, read-out: Percent Inhibition ± SEM, hERG.
From the text: as §1, §2, §3

T2 sequence (Q14721 whole entry): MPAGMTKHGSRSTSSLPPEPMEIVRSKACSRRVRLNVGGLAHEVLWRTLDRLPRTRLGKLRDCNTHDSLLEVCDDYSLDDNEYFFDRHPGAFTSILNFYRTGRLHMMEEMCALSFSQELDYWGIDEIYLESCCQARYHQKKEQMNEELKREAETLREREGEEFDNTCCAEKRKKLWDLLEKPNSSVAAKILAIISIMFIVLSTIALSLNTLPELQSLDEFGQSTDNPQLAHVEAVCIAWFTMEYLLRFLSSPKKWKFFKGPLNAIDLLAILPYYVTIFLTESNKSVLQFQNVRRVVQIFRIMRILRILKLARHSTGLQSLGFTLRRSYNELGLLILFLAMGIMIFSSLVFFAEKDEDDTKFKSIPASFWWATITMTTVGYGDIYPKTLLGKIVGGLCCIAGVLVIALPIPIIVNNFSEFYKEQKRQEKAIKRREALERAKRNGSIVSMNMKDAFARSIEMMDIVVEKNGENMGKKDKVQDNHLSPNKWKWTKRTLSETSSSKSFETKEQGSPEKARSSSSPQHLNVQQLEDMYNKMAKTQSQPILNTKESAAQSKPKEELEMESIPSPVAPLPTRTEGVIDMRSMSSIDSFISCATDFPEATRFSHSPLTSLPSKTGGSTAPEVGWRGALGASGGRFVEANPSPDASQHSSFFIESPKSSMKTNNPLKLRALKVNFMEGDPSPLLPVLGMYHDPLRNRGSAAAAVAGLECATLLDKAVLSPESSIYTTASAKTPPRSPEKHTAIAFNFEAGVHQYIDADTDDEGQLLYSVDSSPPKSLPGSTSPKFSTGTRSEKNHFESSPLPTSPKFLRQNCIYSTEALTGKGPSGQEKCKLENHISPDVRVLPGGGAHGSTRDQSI
T4 sequence (O14649 whole entry): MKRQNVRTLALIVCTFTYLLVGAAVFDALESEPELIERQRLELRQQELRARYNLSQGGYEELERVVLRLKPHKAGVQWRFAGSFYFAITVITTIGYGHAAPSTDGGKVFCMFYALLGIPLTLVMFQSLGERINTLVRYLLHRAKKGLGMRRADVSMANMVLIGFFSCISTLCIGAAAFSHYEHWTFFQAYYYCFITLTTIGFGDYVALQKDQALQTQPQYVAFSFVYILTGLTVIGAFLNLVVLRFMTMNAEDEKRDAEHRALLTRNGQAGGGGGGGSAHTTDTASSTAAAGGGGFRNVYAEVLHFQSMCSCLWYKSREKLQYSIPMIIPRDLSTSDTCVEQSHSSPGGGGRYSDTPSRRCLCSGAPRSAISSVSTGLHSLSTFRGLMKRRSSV
T1 sequence (Q15858 whole entry): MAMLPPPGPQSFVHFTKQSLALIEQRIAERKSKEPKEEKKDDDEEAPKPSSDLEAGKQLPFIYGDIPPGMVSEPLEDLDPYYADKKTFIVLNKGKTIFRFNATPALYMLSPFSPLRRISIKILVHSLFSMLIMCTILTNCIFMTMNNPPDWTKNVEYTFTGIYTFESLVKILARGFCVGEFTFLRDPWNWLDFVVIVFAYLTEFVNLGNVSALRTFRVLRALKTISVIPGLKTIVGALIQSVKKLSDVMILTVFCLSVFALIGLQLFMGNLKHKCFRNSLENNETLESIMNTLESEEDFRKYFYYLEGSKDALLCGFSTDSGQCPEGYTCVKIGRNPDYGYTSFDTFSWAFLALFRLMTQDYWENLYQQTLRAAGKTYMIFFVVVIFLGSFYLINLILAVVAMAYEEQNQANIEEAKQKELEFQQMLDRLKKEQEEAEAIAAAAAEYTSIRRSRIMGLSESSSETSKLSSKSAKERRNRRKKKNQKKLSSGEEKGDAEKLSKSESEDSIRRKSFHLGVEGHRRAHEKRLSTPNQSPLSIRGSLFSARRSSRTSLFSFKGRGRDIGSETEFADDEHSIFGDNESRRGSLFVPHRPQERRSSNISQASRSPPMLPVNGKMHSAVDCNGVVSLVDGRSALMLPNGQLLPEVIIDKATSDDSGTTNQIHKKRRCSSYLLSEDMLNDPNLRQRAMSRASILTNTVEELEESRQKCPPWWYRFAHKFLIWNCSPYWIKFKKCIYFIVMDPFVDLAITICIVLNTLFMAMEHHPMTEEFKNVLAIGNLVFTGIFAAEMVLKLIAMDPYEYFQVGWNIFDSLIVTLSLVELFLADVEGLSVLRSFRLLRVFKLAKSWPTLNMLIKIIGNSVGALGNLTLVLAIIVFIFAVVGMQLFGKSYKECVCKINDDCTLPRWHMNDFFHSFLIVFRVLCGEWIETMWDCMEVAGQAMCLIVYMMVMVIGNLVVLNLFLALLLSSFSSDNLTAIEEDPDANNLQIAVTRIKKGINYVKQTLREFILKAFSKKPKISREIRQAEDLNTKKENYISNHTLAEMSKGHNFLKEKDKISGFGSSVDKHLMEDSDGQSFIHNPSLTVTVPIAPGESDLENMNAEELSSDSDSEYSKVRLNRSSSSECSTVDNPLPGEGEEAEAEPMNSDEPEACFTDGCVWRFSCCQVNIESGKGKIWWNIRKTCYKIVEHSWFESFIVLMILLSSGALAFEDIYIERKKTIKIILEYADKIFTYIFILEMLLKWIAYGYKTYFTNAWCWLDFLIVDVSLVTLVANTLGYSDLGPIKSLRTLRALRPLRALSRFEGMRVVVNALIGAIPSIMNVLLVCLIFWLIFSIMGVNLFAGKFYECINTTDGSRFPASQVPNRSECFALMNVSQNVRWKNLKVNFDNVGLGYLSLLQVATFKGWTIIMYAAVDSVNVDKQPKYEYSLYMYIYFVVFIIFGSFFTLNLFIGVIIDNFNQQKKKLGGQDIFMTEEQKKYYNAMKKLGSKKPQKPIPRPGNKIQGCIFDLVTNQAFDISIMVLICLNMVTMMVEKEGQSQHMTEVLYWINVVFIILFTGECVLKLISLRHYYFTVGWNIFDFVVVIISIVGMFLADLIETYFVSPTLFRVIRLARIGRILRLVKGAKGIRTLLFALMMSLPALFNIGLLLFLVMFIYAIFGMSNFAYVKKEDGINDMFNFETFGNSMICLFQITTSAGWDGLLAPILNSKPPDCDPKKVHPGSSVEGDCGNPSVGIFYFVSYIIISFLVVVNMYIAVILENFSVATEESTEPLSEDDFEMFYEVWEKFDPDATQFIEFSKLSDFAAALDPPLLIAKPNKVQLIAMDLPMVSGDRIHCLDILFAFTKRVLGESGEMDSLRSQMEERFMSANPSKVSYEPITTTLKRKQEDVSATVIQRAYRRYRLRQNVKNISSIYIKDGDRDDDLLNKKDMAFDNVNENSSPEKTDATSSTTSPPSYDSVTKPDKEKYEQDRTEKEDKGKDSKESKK
T6 sequence (Q12809 whole entry): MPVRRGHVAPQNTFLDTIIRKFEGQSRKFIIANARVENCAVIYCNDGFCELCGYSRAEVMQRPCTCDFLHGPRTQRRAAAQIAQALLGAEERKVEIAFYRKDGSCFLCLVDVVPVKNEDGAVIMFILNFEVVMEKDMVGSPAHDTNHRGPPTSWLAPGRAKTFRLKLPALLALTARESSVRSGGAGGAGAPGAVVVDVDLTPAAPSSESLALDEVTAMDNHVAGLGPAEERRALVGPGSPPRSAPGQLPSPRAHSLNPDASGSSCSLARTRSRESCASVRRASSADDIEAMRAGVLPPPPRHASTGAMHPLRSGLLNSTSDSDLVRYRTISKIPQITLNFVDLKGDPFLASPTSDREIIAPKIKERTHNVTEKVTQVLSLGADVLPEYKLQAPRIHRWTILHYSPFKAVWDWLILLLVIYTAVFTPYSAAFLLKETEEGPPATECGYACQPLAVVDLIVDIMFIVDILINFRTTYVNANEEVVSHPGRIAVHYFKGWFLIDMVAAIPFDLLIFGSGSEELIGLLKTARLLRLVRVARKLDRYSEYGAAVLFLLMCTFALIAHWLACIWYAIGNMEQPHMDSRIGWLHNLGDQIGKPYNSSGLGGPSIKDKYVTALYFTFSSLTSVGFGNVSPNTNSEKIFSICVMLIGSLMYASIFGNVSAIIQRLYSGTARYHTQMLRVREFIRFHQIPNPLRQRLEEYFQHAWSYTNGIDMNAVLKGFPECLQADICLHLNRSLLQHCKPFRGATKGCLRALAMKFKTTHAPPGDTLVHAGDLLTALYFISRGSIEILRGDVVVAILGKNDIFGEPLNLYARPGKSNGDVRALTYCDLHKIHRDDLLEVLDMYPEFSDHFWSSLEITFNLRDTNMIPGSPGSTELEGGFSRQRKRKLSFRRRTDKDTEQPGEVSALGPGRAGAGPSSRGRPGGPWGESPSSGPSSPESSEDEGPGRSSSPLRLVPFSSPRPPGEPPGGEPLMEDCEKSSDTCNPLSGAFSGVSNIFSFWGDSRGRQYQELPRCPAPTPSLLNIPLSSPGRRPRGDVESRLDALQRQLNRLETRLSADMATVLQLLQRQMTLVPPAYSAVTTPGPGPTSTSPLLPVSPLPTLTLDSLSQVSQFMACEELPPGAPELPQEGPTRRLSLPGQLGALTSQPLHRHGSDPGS

As for `CC(C)(Oc1ccc(Cl)cc1)C(=O)Nc1cnc(Oc2c(F)cccc2F)nc1` [Analog 40], the inhibition at 10 µM was found to be 7.5 ± 1.7% on NaV1.7; 13 ± 5% on KV2.1; 27 ± 11% on Maxi-K α1/β3; 24 ± 3.7% at TASK-1; 1.3 ± 1% at KV7.2. In addition, the inhibition at 120 s, 10 µM on hERG amounted to 0.9 ± 2.9%.
As for `CN(c1ccc(C#N)cc1)c1ncc(NC(=O)C(C)(C)Oc2ccc(Cl)cc2)cn1` [Analog 66], the inhibition at 10 µM at NaV1.7 was determined as 17 ± 1.8%; on KV2.1, 10 ± 1.6%; on Maxi-K α1/β3, 30 ± 2.6%; at TASK-1, 18 ± 2%; on KV7.2, 1.6 ± 0.94%. Besides, the inhibition at 120 s, 10 µM at hERG is 13 ± 3.3%.
